What was measured:
[1] = system: Smad3 binding to Foxp3 CNS1 region; assay: EMSA, Foxp3 CNS1 probe, NIH/3T3 nuclear lysates; conditions: 3, 10, 30 μM; NIH/3T3 nuclear extracts
Description: EMSA was performed using the LightShift Chemiluminescent EMSA kit (Thermo Fisher Scientific, #20148). Briefly, Nuclear extracts of NIH/3T3 cells were prepared using theNE-PER Nuclear and Cytoplasmic Extraction Kit (Thermo Fisher Scientific, #78835). Complementary DNA oligonucleotide Foxp3 CNS1 region probes were 5′-[…]-3′ and 5′-[…]-3′, AP-1 probes were 5′-[…]-3′ and 5′-[…]-3′, PAI-1 probes were 5′-[…]-3′ and 5′-[…]-3′. Probes were end-labeled with biotin and annealed. The reaction mix consists of labeled oligonucleotides, 10 µg of the nuclear extracts, and 3, 10, 30 μM Dleu2-17aa or scrPEP. The binding reaction was incubated at room temperature for 30 min, followed by loading onto a 6% native DNA polyacrylamide gel. The gel was prerun and run with […] Tris-Borate-EDTA and processed according to the manufacturer’s instructions.

[2] = system: TGF-β/Smad signaling in CD4+ T cells; assay: qPCR analysis of TGF-β/Smad signaling downstream genes; type: cell-based, mouse; conditions: 20 μM 17aa, 24 h
Description: Figure 4 Dleu2-17aa modulates TGF-β/Smad signaling to promote Foxp3 transcription. (A) qPCR analysis of TGF-β/Smad signaling downstream genes in CD4^+ T cells treated with Dleu2-17aa or scrPEP for 24 h and challenged with TGF-β to activate the signaling pathway (n = 3). (B) NIH/3T3 cells were transfected with a Foxp3 CNS1-luciferase reporter plasmid and a Smad3 expression vector. Subsequently, the cells were treated with either Dleu2-17aa or scrPEP. Luciferase activity fold induction was quantified (n = 3). (C) Foxp3 CNS1 region enrichment by Smad3 treated with or without Dleu2-17aa for 24 h in CD4^+ T cells was assessed by ChIP-qPCR (n = 3). (D) EMSA was performed in NIH/3T3 cell nuclear lysates using a 10 μM biotin-labeled Foxp3 probe and treated with Dleu2-17aa or scrPEP (3, 10, 30 μM). There were band shifts to a higher molecular weight and an increase in band intensity by Dleu2-17aa treatment. Data information: n indicates biological replicate. Error bars are mean ± SEM; **P < 0.01, and ***P < 0.001. Statistical analysis was by two-tailed Student’s t-test for (A–C). Source data are available online for this figure.
Total RNA from cells or tissues was extracted using TRIzol reagent (Invitrogen) and then quantified. 1 μg of total RNA was reverse transcribed into cDNA with HiScript II Q RT SuperMix for qPCR (+gDNA Wiper) (Vazyme, China, R223-01). The cDNA samples were run in triplicate at 200 ng/well. Quantitative real-time PCR (qPCR) was performed using ChamQ Universal SYBR qPCR Master Mix (Vazyme, China) on an Applied Biosystems 7500 Fast Real-Time PCR System or a ViiA 7 Real-Time PCR System (Applied Biosystems). All gene expression results were normalized to the expression of the housekeeping gene GAPDH. Primer sequences are listed as follows: Dleu2 forward, 5′-[…]-3 and reverse, 5′-[…]-3; Foxp3 forward, 5′-CCCATCCCCAGGAGTCTTG-3′ and reverse, 5′-[…]-3′; Ctla2a forward, 5′-[…]-3′ and reverse, 5′-[…]-3′; Ccr8 forward, 5′-[…]-3′ and reverse, 5′-[…]-3′; Tgf-β forward: 5′-[…]-3′ and reverse, 5′-[…]-3′; Ctla4 forward, 5′-[…]-3′ and reverse, 5′-[…]-3′; Gapdh forward, 5′-[…]-3′ and reverse, 5′-GGGGTCGTTGATGGCAAC-3′.

## ARGPARRMRGGRRRRLR [scrPEP, scrambled control peptide of Dleu2-17aa]
[1]
  Smad3 binding to the CNS1 region of Foxp3 (EMSA): did not
[2]; TGF-β, replicate 1
  Relative mRNA expression, Ccr8: 1.77
  Relative mRNA expression, Clta4: 4.488
  Relative mRNA expression, Ctla2a: 7.981
  Relative mRNA expression, Foxp3: 19.2862
  Relative mRNA expression, Tgf-β: 0.9918
[2]; TGF-β, replicate 2
  Relative mRNA expression, Ccr8: 1.871
  Relative mRNA expression, Clta4: 3.767
  Relative mRNA expression, Ctla2a: 6.697
  Relative mRNA expression, Foxp3: 27.373
  Relative mRNA expression, Tgf-β: 0.9024
[2]; TGF-β, replicate 3
  Relative mRNA expression, Ccr8: 1.768
  Relative mRNA expression, Clta4: 4.326
  Relative mRNA expression, Ctla2a: 4.254
  Relative mRNA expression, Foxp3: 26.607
  Relative mRNA expression, Tgf-β: 1.365
[2]; no TGF-β, replicate 1
  Relative mRNA expression, Ccr8: 1
  Relative mRNA expression, Clta4: 1
  Relative mRNA expression, Ctla2a: 1
  Relative mRNA expression, Foxp3: 1
  Relative mRNA expression, Tgf-β: 1
[2]; no TGF-β, replicate 2
  Relative mRNA expression, Ccr8: 0.871
  Relative mRNA expression, Clta4: 0.794
  Relative mRNA expression, Ctla2a: 0.868
  Relative mRNA expression, Foxp3: 1
  Relative mRNA expression, Tgf-β: 0.7198
[2]; no TGF-β, replicate 3
  Relative mRNA expression, Ccr8: 1
  Relative mRNA expression, Clta4: 0.856
  Relative mRNA expression, Ctla2a: 1
  Relative mRNA expression, Foxp3: 0.967
  Relative mRNA expression, Tgf-β: 0.8563
